Data as given in patent US20240389593A1, “HETEROCYCLIC COMPOUND AND USE THEREOF” (KUMIAI CHEMICAL INDUSTRY CO., LTD., priority 2021, published 2024).

Tests used:
Type in all cases: in vivo
Nilaparvata lugens = assay: Test on insecticidal activity in Nilaparvata lugens (rice sprout dip); settings: 144 h, 500 ppm active ingredient (wettable powder diluted with water), rice sprouts dipped, second-instar larvae, 25° C., 6 days after treatment
Procedure: A wettable powder prepared according to formulation example 2 was diluted with water to a concentration of 500 ppm as the active ingredient. Some rice sprouts were dipped in the drug solution and placed in a plastic cup. Ten second-instar larvae of Nilaparvata lugens were put on the treated leaves, and the cup was covered with a lid. Then, it was placed in a constant room temperature of 25° C. The number of dead insects was investigated at 6 days after the treatment. Mortality rate was calculated using the formula 1. The number of replication was one in each test.

Helicoverpa armigera = assay: Test on insecticidal activity in Helicoverpa armigera (cabbage leaf dip); settings: foliar, 144 h, 500 ppm active ingredient (wettable powder diluted with water), cabbage leaves dipped, hatching larvae, 25° C., 6 days after treatment
Procedure: A wettable powder prepared according to formulation example 2 was diluted with water to a concentration of 500 ppm as the active ingredient. Some cabbage leaves were dipped in the drug solution, air-dried, and then placed in a plastic cup. Five hatching larvae of Helicoverpa armigera were put on the treated leaves, and the cup was covered with a lid. Then, it was placed in a room at constant temperature of 25° C. The number of dead insects was investigated at 6 days after the treatment. Mortality rate was calculated using the formula 1. The number of replication was two in each test.

Plutella xylostella = assay: Test on insecticidal activity in Plutella xylostella (cabbage leaf dip); settings: foliar, 144 h, 500 ppm active ingredient (wettable powder diluted with water), cabbage leaves dipped, second-instar larvae, 25° C., 6 days after treatment
Procedure: A wettable powder prepared according to formulation example 2 was diluted with water to a concentration of 500 ppm as the active ingredient. Some cabbage leaves were dipped in the drug solution, air-dried, and then placed in a plastic cup. Ten second-instar larvae of Plutella xylostella were put on the treated leaves, and the cup was covered with a lid. Then, it was placed in a room at constant temperature of 25° C. The number of dead insects was investigated at 6 days after treatment. Mortality rate was calculated using the formula 1. The number of replication was one in each test.

Aphis gossypii = assay: Test on pest control effect in Aphis gossypii (cucumber nursery plant dip); settings: 72 h, 500 ppm active ingredient (wettable powder diluted with water), cucumber nursery plants inoculated with larvae dipped, 25° C., 3 days after treatment
Procedure: [Test example 4] Test on pest control effect in Aphis gossypii A wettable powder prepared according to formulation example 2 was diluted with water to a concentration of 500 ppm as the active ingredient. Some nursery plant of cucumber previously inoculated with larvae of Aphis gossypii were dipped in the drug solution and air-dried. The treated nursery plants of cucumber were placed in a room at constant temperature of 25° C. The number of surviving insects was counted at 3 days after the treatment. Mortality rate was calculated using the formula 1. The number of replication was one in each test.

Measured: mortality at 500 ppm

CCS(=O)(=O)c1c(-n2cc(OCC(F)(F)C(F)(F)C(F)(F)F)cn2)nc2ccc(Br)cn12 [A-0039, 6-bromo-3-(ethylsulfonyl)-2-[4-(2,2,3,3,4,4,4-heptafluorobutoxy)-1H-pyrazol-1-yl] imidazo [1,2-a] pyridine]
≥ 90%: all assays above

CCS(=O)(=O)c1c(-n2cc(OCC(F)(F)C(F)(F)C(F)(F)F)cn2)nc2ccc(C(F)(F)F)cn12 [A-0046, 3-(ethylsulfonyl)-2-[4-(2,2,3,3,4,4,4-heptafluorobutoxy)-1H-pyrazol-1-yl]-6-(trifluoromethyl)imidazo[1,2-a]pyridine]
≥ 90%: all assays above

CCS(=O)(=O)c1c(-n2cc(OCC(F)(F)C(F)(F)C(F)(F)F)cn2)nc2ccc(C3CC3)cn12 [A-0049, 6-cyclopropyl-3-(ethylsulfonyl)-2-[4-(2,2,3,3,4,4,4-heptafluorobutoxy)-1H-pyrazol-1-yl] imidazo [1,2-a] pyridine]
≥ 90%: all assays above
